# Results published in a melting point compilation (Tetko et al.; mined from patent text by program, amines drawn as free bases though some values may be those of a salt).
row,Structure (SMILES),melting point
1,CCCCc1sc(C(=O)O)c2c1-c1nn(C)cc1CC2,244 to 245 °C
2,N#Cc1ccc(Oc2ccc(CC(=O)O)cc2)nc1,148 to 151 °C
3,COc1cccc(CN2CCN(CC(=O)N3CC=C(c4cccc(C(F)(F)F)c4)n4cnc(C#N)c43)CC2)c1,131 to 133 °C
4,COc1cc(C(O)C#N)ccc1O (stereo unspecified),80 to 81 °C
5,CC(C)Cn1cc(C(=O)Nc2nccs2)c2ccc(Cl)cc21,200 to 202 °C
6,CSCCSc1c(O)cc(C)oc1=O,81 to 83 °C
7,N#CCc1ccccc1-c1ccc(C(=O)N2Cc3ccc(C(=O)NCc4cccnc4)n3Cc3ccccc32)cc1,105 to 108 °C
8,CCOC(=O)c1ccc(/C=C(\C)c2cc3c(s2)C(C)(C)CCC3(C)C)nc1,83 to 84 °C
9,O=C(O)CC1(c2ccccc2)Oc2ccc(Cl)cc2O1 (stereo unspecified),117 to 119 °C
10,Cc1nc2ccc(Cl)cc2nc1Cl,194 to 196 °C
11,O=C1CCCN1CCCN=c1sc2ccc(Cl)cc2s1,97 to 97.5 °C
12,O=C(O)Cc1ccc(OCCNC(=O)C2Cc3ccccc3N2S(=O)(=O)c2ccc(-c3cc(F)ccc3Cl)cc2)cc1 (stereo unspecified),78 to 84 °C
13,CC(C)(C)NS(=O)(=O)c1csc2ccccc12,146 to 148 °C
14,COc1cc2c(=O)n(NS(C)(=O)=O)c(=O)[nH]c2cc1[N+](=O)[O-],> 280 °C
15,OCc1c(F)ccc(-n2cccc2)c1F,< 60 °C
16,O=c1ccsn1C(O)C(Cl)(Cl)Cl (stereo unspecified),117 to 118 °C
17,COC(=O)N1CCc2ccccc2CC1,53 to 54 °C
18,CCCn1nc(C(C)C)c(C(=O)OC(C)OC(=O)OC2CCCCC2)c1Cc1ccc(-c2ccccc2-c2nnn[nH]2)cc1 (stereo unspecified),79 to 83 °C
19,O=C(O)CC(NC(=O)c1ccccc1)c1ccccc1F (stereo unspecified),202 to 205 °C
20,O=C(O)C1(C(=O)O)CCOCCOCCOCCOCC1,107 to 111 °C
21,O=C(Nc1noc2ccccc12)N1CCN(c2nc(-c3ccccc3)co2)CC1,171 to 172 °C
22,O=c1[nH]c(S)nnc1-c1cc(O)c(O)c([N+](=O)[O-])c1,282 to 284 °C
23,Cc1ccccc1-c1cc(C#N)c[nH]1,151 to 152 °C
24,Cc1nn(-c2cc3nc(S(=O)(=O)Cc4ccccc4Cl)sc3cc2Cl)c(=O)n1C(F)F,196 to 198 °C
25,C=CCC(C)(C)C(NC(=O)c1ccc(Cl)cc1)NC(=NC#N)Nc1cccnc1 (stereo unspecified),97 to 98 °C
26,Fc1ccccc1N1CC2(CCNCC2)c2ccc(Cl)cc21,174 to 176 °C
27,CCN(CC)C(=O)C=Cc1ccccc1,65 °C
28,CCCn1nc2c(N)nc3ccccc3c2c1CC(C)C,199 to 200 °C

# Further lines, results first:
row,melting point,Structure (SMILES)
1,163 to 166 °C,COc1ccc(C=Cc2ccc(O)c(OC)c2)cc1
2,114 to 116 °C,COC(=O)c1ccccc1Nc1cccc(C(C)NO)c1C (stereo unspecified)
3,225 to 227 °C,Cc1cccnc1-c1cc2cccnc2c(=O)[nH]1
4,211 to 213 °C,Cc1ccc(-c2ccc(C(=O)Nc3ccc4nc(CN(C(C)C)C(C)C)ccc4c3)cn2)cc1
5,118 to 119 °C,CC(C)(C)OC(=O)NC(Cc1ccccc1)C(=O)Oc1ccc2ccccc2c1 (stereo unspecified)
6,234 to 236 °C,COc1c(-c2ccccc2)csc1-c1cnn2c(O)ccnc12
7,93 to 94 °C,COc1ccc(COc2cccc(OC)c2C(=O)C=C(SC)SC)cc1
8,144 to 146 °C,Cn1cc(C(=O)Nc2ccccc2-c2ccc(Cl)cc2)c(C(F)(F)F)n1
9,207 to 209 °C,COc1ccc(C2CC(=O)N(c3c(C)c(C)c4c(c3C)[C@@H](c3ccc(C)cc3)C(C)(C)O4)C(=O)C2)cc1
10,195 to 196 °C,O=C(NCCOc1ccc(CC(Oc2ccccc2)C(=O)O)cc1)c1ccc(-c2ccc(F)cc2)cc1 (stereo unspecified)
11,169 to 171 °C,COc1cccc2oc(-c3ccc(C)cc3)cc(=O)c12
12,140 to 141 °C,O=c1c2ccccc2sn1-c1ccccc1
13,143 to 144 °C,COc1cc(C)c(C)cc1NC(=O)N1CCN(c2ccccc2)CC1
